What all share (assay): AK assay 384-well format, Prestwick library screening
One experiment concerns E. faecium. The format is cell-based, Enterococcus faecium. The note with it: 50 μM final drug concentration; for fold induction at 50 µM: Enterococcus faecium, 3 h.
A further experiment concerns K. pneumoniae. Type of experiment: cell-based, Klebsiella pneumoniae. The following applies: 50 μM final drug concentration; for fold induction at 50 µM: Klebsiella pneumoniae, 3 h.
Another experiment relates to P. aeruginosa. The format is cell-based, Pseudomonas aeruginosa. The note with it: 50 μM final drug concentration; for fold induction at 50 µM: Pseudomonas aeruginosa, 3 h.
Experiment [1] deals with S. aureus strain USA300-0114. Type of experiment: cell-based, Staphylococcus aureus. The following applies: 50 μM final drug concentration; for fold induction at 50 µM: Staphylococcus aureus, USA300, 3 h.
The test system of a further experiment is E. coli. The format is cell-based, Escherichia coli. The following applies: 50 μM final drug concentration; for fold induction at 50 µM: Escherichia coli, 3 h.
The test system of experiment [2] is A. baumannii strain 98-37-09. The format is cell-based, Acinetobacter baumannii. The note with it: 50 μM final drug concentration; for fold induction at 50 µM: Acinetobacter baumannii, 983709, 3 h.
Another experiment has as its system E. cloacae. The format is cell-based, Enterobacter cloacae. The following applies: 50 μM final drug concentration; for fold induction at 50 µM: Enterobacter cloacae, 3 h.
Where [3] appears, read: planktonic E. faecium, positive cutoff 3-fold increase, read-out: AK-based Prestwick library screening result, E. faecium (fold increase in extracellular AK activity).
The mark [4] stands for this setting: planktonic K. pneumoniae, positive cutoff 3-fold increase, read-out: AK-based Prestwick library screening result, K. pneumoniae (fold increase in extracellular AK activity).
[5] abbreviates: planktonic P. aeruginosa, positive cutoff 3-fold increase, read-out: AK-based Prestwick library screening result, P. aeruginosa (fold increase in extracellular AK activity).
Where [6] appears, read: planktonic S. aureus, positive cutoff 3-fold increase, read-out: AK-based Prestwick library screening result, S. aureus (fold increase in extracellular AK activity).
Where [7] appears, read: planktonic E. coli, positive cutoff 3-fold increase, read-out: AK-based Prestwick library screening result, E. coli (fold increase in extracellular AK activity).
[8] abbreviates: planktonic A. baumannii, positive cutoff 3-fold increase, read-out: AK-based Prestwick library screening result, A. baumannii (fold increase in extracellular AK activity).
[9] abbreviates: planktonic E. cloacae, positive cutoff 3-fold increase, read-out: AK-based Prestwick library screening result, E. cloacae (fold increase in extracellular AK activity).
[10] abbreviates: planktonic E. faecium, cutoff for positive-scoring molecules 3-fold increase, read-out: AK-based Prestwick Library Screening Results, E. faecium (increase in extracellular AK activity).
[11] abbreviates: planktonic K. pneumoniae, cutoff for positive-scoring molecules 3-fold increase, read-out: AK-based Prestwick Library Screening Results, K. pneumoniae (increase in extracellular AK activity).
[12] abbreviates: planktonic P. aeruginosa, cutoff for positive-scoring molecules 3-fold increase, read-out: AK-based Prestwick Library Screening Results, P. aeruginosa (increase in extracellular AK activity).
The mark [13] stands for this setting: planktonic S. aureus, cutoff for positive-scoring molecules 3-fold increase, read-out: AK-based Prestwick Library Screening Results, S. aureus (increase in extracellular AK activity).
[14] abbreviates: planktonic E. coli, cutoff for positive-scoring molecules 3-fold increase, read-out: AK-based Prestwick Library Screening Results, E. coli (increase in extracellular AK activity).
[15] abbreviates: planktonic A. baumannii, cutoff for positive-scoring molecules 3-fold increase, read-out: AK-based Prestwick Library Screening Results, A. baumannii (increase in extracellular AK activity).
[16] abbreviates: planktonic E. cloacae, cutoff for positive-scoring molecules 3-fold increase, read-out: AK-based Prestwick Library Screening Results, E. cloacae (increase in extracellular AK activity).
The mark [17] stands for this setting: planktonic E. faecium, 384-well, cutoff for positive-scoring molecules 3-fold increase, read-out: AK-based Prestwick Library Screening Results: E. faecium (increase in extracellular AK activity).
The mark [18] stands for this setting: planktonic K. pneumoniae, 384-well, cutoff for positive-scoring molecules 3-fold increase, read-out: AK-based Prestwick Library Screening Results: K. pneumoniae (increase in extracellular AK activity).
[19] abbreviates: planktonic P. aeruginosa, 384-well, cutoff for positive-scoring molecules 3-fold increase, read-out: AK-based Prestwick Library Screening Results: P. aeruginosa (increase in extracellular AK activity).
[20] abbreviates: planktonic S. aureus, 384-well, cutoff for positive-scoring molecules 3-fold increase, read-out: AK-based Prestwick Library Screening Results: S. aureus (increase in extracellular AK activity).
[21] abbreviates: planktonic E. coli, 384-well, cutoff for positive-scoring molecules 3-fold increase, read-out: AK-based Prestwick Library Screening Results: E. coli (increase in extracellular AK activity).
Where [22] appears, read: planktonic A. baumannii, 384-well, cutoff for positive-scoring molecules 3-fold increase, read-out: AK-based Prestwick Library Screening Results: A. baumannii (increase in extracellular AK activity).
Where [23] appears, read: planktonic E. cloacae, 384-well, cutoff for positive-scoring molecules 3-fold increase, read-out: AK-based Prestwick Library Screening Results: E. cloacae (increase in extracellular AK activity).
The mark [24] stands for this setting: planktonic, cutoff for positive 3-fold increase, read-out: AK-based Prestwick Library Screening Results, E. faecium (fold increase in extracellular AK activity).
The mark [25] stands for this setting: planktonic, cutoff for positive 3-fold increase, read-out: AK-based Prestwick Library Screening Results, K. pneumoniae (fold increase in extracellular AK activity).
Setting [26] is: planktonic, cutoff for positive 3-fold increase, read-out: AK-based Prestwick Library Screening Results, P. aeruginosa (fold increase in extracellular AK activity).
Where [27] appears, read: planktonic, cutoff for positive 3-fold increase, read-out: AK-based Prestwick Library Screening Results, S. aureus (fold increase in extracellular AK activity).
[28] abbreviates: planktonic, cutoff for positive 3-fold increase, read-out: AK-based Prestwick Library Screening Results, E. coli (fold increase in extracellular AK activity).
[29] abbreviates: planktonic, cutoff for positive 3-fold increase, read-out: AK-based Prestwick Library Screening Results, A. baumannii (fold increase in extracellular AK activity).
The mark [30] stands for this setting: planktonic, cutoff for positive 3-fold increase, read-out: AK-based Prestwick Library Screening Results, E. cloacae (fold increase in extracellular AK activity).
Where [31] appears, read: cutoff for positive-scoring molecules 3-fold increase.

Data on ten compounds can be found in patent publication US10004701B2, “Methods and compositions for treating infection” (UNIVERSITY OF ROCHESTER, priority 2012, dated 2018).

SMILES strings stand for the structures. Where a name gives a salt, the structure may show the parent alone. Read-outs that look alike come from different tables or passages of the source.

For `CN(C/C=C/c1ccccc1)Cc1cccc2ccccc12` [Naftifine hydrochloride], the fold induction at 50 µM with E. faecium (setting [3]) was 1; in the experiment on K. pneumoniae (setting [4]), 0.7; in the experiment on P. aeruginosa (setting [5]), 0.8; in experiment [1] (setting [6]) it was 0.8; with E. coli (setting [7]), 1; in experiment [2] (setting [8]) it was 1.1. Moreover, the fold induction at 50 µM in the experiment with E. cloacae (setting [9]) turned out to be 1.

`C[N+]1(C)CCC(OC(=O)C(O)(c2ccccc2)C2CCCC2)C1` (stereo not shown) [Glycopyrrolate]: the fold induction at 50 µM is 0.9 in the experiment with E. faecium (planktonic, cutoff for positive-scoring molecules 3-fold increase, read-out: AK-based Prestwick Library Screening Results, E. faecium (fold increase in extracellular AK activity)); 0.8 in the experiment with K. pneumoniae (planktonic, cutoff for positive-scoring molecules 3-fold increase, read-out: AK-based Prestwick Library Screening Results, K. pneumoniae (fold increase in extracellular AK activity)); 0.9 in the experiment on P. aeruginosa (planktonic, cutoff for positive-scoring molecules 3-fold increase, read-out: AK-based Prestwick Library Screening Results, P. aeruginosa (fold increase in extracellular AK activity)); 0.7 in experiment [1] (planktonic, cutoff for positive-scoring molecules 3-fold increase, read-out: AK-based Prestwick Library Screening Results, S. aureus (fold increase in extracellular AK activity)); 0.9 with E. coli (planktonic, cutoff for positive-scoring molecules 3-fold increase, read-out: AK-based Prestwick Library Screening Results, E. coli (fold increase in extracellular AK activity)); 0.8 in experiment [2] (planktonic, cutoff for positive-scoring molecules 3-fold increase, read-out: AK-based Prestwick Library Screening Results, A. baumannii (fold increase in extracellular AK activity)). The fold induction at 50 µM in the experiment on E. cloacae (planktonic, cutoff for positive-scoring molecules 3-fold increase, read-out: AK-based Prestwick Library Screening Results, E. cloacae (fold increase in extracellular AK activity)) is 1.1.

With `NC(=O)N/N=C/c1ccc([N+](=O)[O-])o1` [Nitrofural], the fold induction at 50 µM with E. faecium (setting [10]) was determined as 1; in the experiment with K. pneumoniae (setting [11]), 0.2; in the experiment on P. aeruginosa (setting [12]), 0.8; in experiment [1] (setting [13]), 0.5; with E. coli (setting [14]), 0.7; in experiment [2] (setting [15]), 1. Besides, the fold induction at 50 µM in the experiment with E. cloacae (setting [16]) was 0.8.

Regarding `O=C(O)CCC(=O)c1ccc(-c2ccccc2)cc1` [Fenbufen], the fold induction at 50 µM in the experiment with E. faecium (setting [17]) came to 0.8; in the experiment on K. pneumoniae (setting [18]), 0.8; in the experiment on P. aeruginosa (setting [19]), 0.8; in experiment [1] (setting [20]) it was 0.7; with E. coli (setting [21]), 0.8; in experiment [2] (setting [22]) it was 1. Moreover, the fold induction at 50 µM in the experiment on E. cloacae (setting [23]) is 1.6.

As for `CC1(C)O[C@@H]2C[C@H]3[C@@H]4C[C@H](F)C5=CC(=O)C=C[C@]5(C)[C@H]4[C@@H](O)C[C@]3(C)[C@]2(C(=O)CO)O1` [Flunisolide], the fold induction at 50 µM with E. faecium (setting [24]) was 0.9; in the experiment on K. pneumoniae (setting [25]) it was 0.5; in the experiment on P. aeruginosa (setting [26]), 0.3; in experiment [1] (setting [27]), 0.4; with E. coli (setting [28]), 0.5; in experiment [2] (setting [29]), 0.4. In the experiment on E. cloacae (setting [30]), the fold induction at 50 µM came out at 0.3.

For the compound `Clc1cnccn1` [Compound 2-Chloropyrazine, 2-Chloropyrazine], the fold induction at 50 µM was 1.1 in the experiment on E. faecium (setting [3]); 0.9 in the experiment with K. pneumoniae (setting [4]); 1 in the experiment with P. aeruginosa (setting [5]); 1.1 in experiment [1] (setting [6]); 1 with E. coli (setting [7]); 1.2 in experiment [2] (setting [8]). In addition, the fold induction at 50 µM in the experiment on E. cloacae (setting [9]) is 1.4.

For the compound `CCCCC1C(=O)N(c2ccccc2)N(c2ccc(O)cc2)C1=O` (stereo not shown) [Oxyphenbutazone], the “AK-based Prestwick Library Screening Results, E. faecium (fold increase in extracellular AK activity)” value with E. faecium (setting [31]) stood at 0.9. Also, in the experiment with K. pneumoniae (setting [31]), the “AK-based Prestwick Library Screening Results, K. pneumoniae (fold increase in extracellular AK activity)” value was determined as 0.5. Also, in the experiment with P. aeruginosa (setting [31]), the “AK-based Prestwick Library Screening Results, P. aeruginosa (fold increase in extracellular AK activity)” value is on record as 0.5. The “AK-based Prestwick Library Screening Results, S. aureus (fold increase in extracellular AK activity)” value in experiment [1] (setting [31]) was 0.4. The “AK-based Prestwick Library Screening Results, E. coli (fold increase in extracellular AK activity)” value in the experiment on E. coli (setting [31]) was found to be 0.5. Also, the “AK-based Prestwick Library Screening Results, A. baumannii (fold increase in extracellular AK activity)” value in experiment [2] (setting [31]) is on record as 0.5. Moreover, in the experiment on E. cloacae (setting [31]), the “AK-based Prestwick Library Screening Results, E. cloacae (fold increase in extracellular AK activity)” value is 0.5.

For the compound `CC[C@H]1CN2CC[C@H]1C[C@H]2[C@H](O)c1ccnc2ccc(OC)cc12` [Hydroquinine hydrobromide hydrate], the fold induction at 50 µM with E. faecium (setting [24]) came out at 1.1; in the experiment with K. pneumoniae (setting [25]) it was 1.3; in the experiment with P. aeruginosa (setting [26]), 1.2; in experiment [1] (setting [27]), 1; in the experiment with E. coli (setting [28]) it was 1.2; in experiment [2] (setting [29]), 1.2. For the same compound, the fold induction at 50 µM in the experiment with E. cloacae (setting [30]) worked out at 1.6.

On to `COc1cc2c(cc1OC)-c1cc3ccc(OC)c(OC)c3c[n+]1CC2` [Palmatine chloride], for which the fold induction at 50 µM in the experiment with E. faecium (setting [10]) came out at 1; with K. pneumoniae (setting [11]), 0.5; in the experiment on P. aeruginosa (setting [12]), 0.7; in experiment [1] (setting [13]) it was 0.8; in the experiment on E. coli (setting [14]), 0.7; in experiment [2] (setting [15]) it was 0.7. The fold induction at 50 µM in the experiment with E. cloacae (setting [16]) was found to be 0.9.

With `CCN(CC)CCCC(C)Nc1c2ccc(Cl)cc2nc2ccc(OC)cc12` (stereo not shown) [Quinacrine dihydrochloride dihydrate], the fold induction at 50 µM with E. faecium (setting [17]) was 1; in the experiment with K. pneumoniae (setting [18]) it was 1; with P. aeruginosa (setting [19]), 0.9; in experiment [1] (setting [20]), 1.2; in the experiment with E. coli (setting [21]) it was 1.2; in experiment [2] (setting [22]), 1.3. Also, in the experiment with E. cloacae (setting [23]), the fold induction at 50 µM turned out to be 1.4.
